Results as given in the supplement of paper PMC10307832.

How the values were obtained:
Test in all cases: relative viability (nuclei count vs DMSO), 5 days (fraction); higher = more cells survive
CUDC-101 + Bortezomib = compound: C#Cc1cccc(Nc2ncnc3cc(OC)c(OCCCCCCC(=O)NO)cc23)c1 [CUDC-101] + CC(C)C[C@H](NC(=O)[C@H](Cc1ccccc1)NC(=O)c1cnccn1)B(O)O [Bortezomib] (partner 0.002 µM)
Outline: (§1)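 Each reported value is a median over duplicate plates. It expresses relative viability: treated-well nuclei count divided by vehicle-well nuclei count. Lung cancer cell lines in 1536-well plates were dosed by pin tool a day after seeding, alone with one drug or with a fixed anchor-drug dose plus five library-drug doses (not always all listed) in √10 steps, and nuclei were counted after 5 days.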

CUDC-101 + Vorinostat = compound: C#Cc1cccc(Nc2ncnc3cc(OC)c(OCCCCCCC(=O)NO)cc23)c1 [CUDC-101] + O=C(CCCCCCC(=O)Nc1ccccc1)NO [Vorinostat] (partner 1 µM)
Outline: as §1

[1] = compound: C1=CC=C2C(=C1)N=C(S2)C(C#N)C3=NC(=NC=C3)NCCC4=CN=CC=C4 + CC(C)C[C@H](NC(=O)[C@H](Cc1ccccc1)NC(=O)c1cnccn1)B(O)O [Bortezomib] (partner 0.002 µM)
Outline: as §1

[2] = compound: C1=CC=C2C(=C1)N=C(S2)C(C#N)C3=NC(=NC=C3)NCCC4=CN=CC=C4 + CS(=O)(=O)N1CCN(Cc2cc3nc(-c4cccc5[nH]ncc45)nc(N4CCOCC4)c3s2)CC1 [Pictilisib] (partner 1 µM)
Outline: as §1

ABC-1
relative viability (CUDC-101 + Bortezomib; first compound 0.01 µM): 0.243
relative viability (CUDC-101 + Bortezomib; first compound 0.03162 µM): 0.247
relative viability (CUDC-101 + Bortezomib; first compound 0.1 µM): 0.269
relative viability (CUDC-101 + Bortezomib; first compound 0.3162 µM): 0.24
relative viability (CUDC-101 + Bortezomib; first compound 1 µM): 0.18
relative viability (CUDC-101 + Vorinostat; first compound 0.01 µM): 1.05
relative viability (CUDC-101 + Vorinostat; first compound 0.03162 µM): 0.988
relative viability (CUDC-101 + Vorinostat; first compound 0.1 µM): 1.17
relative viability (CUDC-101 + Vorinostat; first compound 0.3162 µM): 0.815
relative viability (CUDC-101 + Vorinostat; first compound 1 µM): 0.318
relative viability ([1]; first compound 0.005 µM): 0.348
relative viability ([1]; first compound 0.01581 µM): 0.292
relative viability ([1]; first compound 0.05 µM): 0.262
relative viability ([1]; first compound 0.1581 µM): 0.313
relative viability ([1]; first compound 0.5 µM): 0.387
relative viability ([2]; first compound 0.005 µM): 0.84
relative viability ([2]; first compound 0.01581 µM): 0.605
relative viability ([2]; first compound 0.05 µM): 0.758
relative viability ([2]; first compound 0.1581 µM): 0.87
relative viability ([2]; first compound 0.5 µM): 0.725

NCI-H1793
relative viability (CUDC-101 + Vorinostat; first compound 0.01 µM): 0.858
relative viability (CUDC-101 + Vorinostat; first compound 0.03162 µM): 0.774
relative viability (CUDC-101 + Vorinostat; first compound 0.1 µM): 0.558
relative viability (CUDC-101 + Vorinostat; first compound 0.3162 µM): 0.675
relative viability (CUDC-101 + Vorinostat; first compound 1 µM): 0.331
relative viability ([2]; first compound 0.005 µM): 0.329
relative viability ([2]; first compound 0.01581 µM): 0.275
relative viability ([2]; first compound 0.05 µM): 0.353
relative viability ([2]; first compound 0.1581 µM): 0.267
relative viability ([2]; first compound 0.5 µM): 0.352

NCI-H1563
relative viability (CUDC-101 + Bortezomib; first compound 0.01 µM): 0.842
relative viability (CUDC-101 + Bortezomib; first compound 0.03162 µM): 0.712
relative viability (CUDC-101 + Bortezomib; first compound 0.1 µM): 0.948
relative viability (CUDC-101 + Bortezomib; first compound 0.3162 µM): 0.916
relative viability (CUDC-101 + Bortezomib; first compound 1 µM): 0.792
relative viability ([1]; first compound 0.005 µM): 0.808
relative viability ([1]; first compound 0.01581 µM): 0.769
relative viability ([1]; first compound 0.05 µM): 0.886
relative viability ([1]; first compound 0.1581 µM): 0.873
relative viability ([1]; first compound 0.5 µM): 0.798
relative viability ([2]; first compound 0.005 µM): 0.642
relative viability ([2]; first compound 0.01581 µM): 0.619
relative viability ([2]; first compound 0.05 µM): 0.677
relative viability ([2]; first compound 0.1581 µM): 0.709
relative viability ([2]; first compound 0.5 µM): 0.647

NCI-H2170
relative viability (CUDC-101 + Vorinostat; first compound 0.01 µM): 0.809
relative viability (CUDC-101 + Vorinostat; first compound 0.03162 µM): 0.821
relative viability (CUDC-101 + Vorinostat; first compound 0.1 µM): 0.77
relative viability (CUDC-101 + Vorinostat; first compound 0.3162 µM): 0.859
relative viability (CUDC-101 + Vorinostat; first compound 1 µM): 0.549
relative viability ([2]; first compound 0.01581 µM): 0.298
relative viability ([2]; first compound 0.05 µM): 0.292
relative viability ([2]; first compound 0.1581 µM): 0.394
relative viability ([2]; first compound 0.5 µM): 0.32

NCI-H1395
relative viability (CUDC-101 + Vorinostat; first compound 0.01 µM): 0.81
relative viability (CUDC-101 + Vorinostat; first compound 0.03162 µM): 0.753
relative viability (CUDC-101 + Vorinostat; first compound 0.1 µM): 0.797
relative viability (CUDC-101 + Vorinostat; first compound 0.3162 µM): 0.661
relative viability (CUDC-101 + Vorinostat; first compound 1 µM): 0.489
relative viability ([2]; first compound 0.005 µM): 0.602
relative viability ([2]; first compound 0.05 µM): 0.651
relative viability ([2]; first compound 0.1581 µM): 0.781
relative viability ([2]; first compound 0.5 µM): 0.81

NCI-H2342
relative viability (CUDC-101 + Vorinostat; first compound 0.01 µM): 0.737
relative viability (CUDC-101 + Vorinostat; first compound 0.03162 µM): 0.663
relative viability (CUDC-101 + Vorinostat; first compound 0.1 µM): 0.773
relative viability (CUDC-101 + Vorinostat; first compound 0.3162 µM): 0.685
relative viability (CUDC-101 + Vorinostat; first compound 1 µM): 0.703

EBC-1
relative viability (CUDC-101 + Bortezomib; first compound 0.01 µM): 0.658
relative viability (CUDC-101 + Bortezomib; first compound 0.03162 µM): 0.421
relative viability (CUDC-101 + Bortezomib; first compound 0.1 µM): 0.409
relative viability (CUDC-101 + Bortezomib; first compound 0.3162 µM): 0.245
relative viability (CUDC-101 + Bortezomib; first compound 1 µM): 0.153
relative viability ([1]; first compound 0.005 µM): 0.52
relative viability ([1]; first compound 0.01581 µM): 0.545
relative viability ([1]; first compound 0.05 µM): 0.544
relative viability ([1]; first compound 0.1581 µM): 0.666
relative viability ([1]; first compound 0.5 µM): 0.504
relative viability ([2]; first compound 0.005 µM): 0.398
relative viability ([2]; first compound 0.01581 µM): 0.363
relative viability ([2]; first compound 0.05 µM): 0.352
relative viability ([2]; first compound 0.1581 µM): 0.368
relative viability ([2]; first compound 0.5 µM): 0.275

NCI-H1944
relative viability (CUDC-101 + Vorinostat; first compound 0.01 µM): 0.522
relative viability (CUDC-101 + Vorinostat; first compound 0.03162 µM): 0.58
relative viability (CUDC-101 + Vorinostat; first compound 0.1 µM): 0.529
relative viability (CUDC-101 + Vorinostat; first compound 0.3162 µM): 0.533
relative viability (CUDC-101 + Vorinostat; first compound 1 µM): 0.369
relative viability ([2]; first compound 0.005 µM): 0.369
relative viability ([2]; first compound 0.01581 µM): 0.33
relative viability ([2]; first compound 0.05 µM): 0.355
relative viability ([2]; first compound 0.1581 µM): 0.362
relative viability ([2]; first compound 0.5 µM): 0.319

NCI-H1299
relative viability (CUDC-101 + Bortezomib; first compound 0.01 µM): 1.05
relative viability (CUDC-101 + Bortezomib; first compound 0.03162 µM): 0.997
relative viability (CUDC-101 + Bortezomib; first compound 0.1 µM): 1.07
relative viability (CUDC-101 + Bortezomib; first compound 0.3162 µM): 1.05
relative viability (CUDC-101 + Bortezomib; first compound 1 µM): 1.03
relative viability ([1]; first compound 0.005 µM): 1.08
relative viability ([1]; first compound 0.01581 µM): 1.08
relative viability ([1]; first compound 0.05 µM): 1.04
relative viability ([1]; first compound 0.1581 µM): 1.01
relative viability ([1]; first compound 0.5 µM): 1.05
relative viability ([2]; first compound 0.005 µM): 0.682
relative viability ([2]; first compound 0.01581 µM): 0.941
relative viability ([2]; first compound 0.05 µM): 0.807
relative viability ([2]; first compound 0.1581 µM): 0.875
relative viability ([2]; first compound 0.5 µM): 0.834

Calu-6
relative viability (CUDC-101 + Bortezomib; first compound 0.01 µM): 0.955
relative viability (CUDC-101 + Bortezomib; first compound 0.03162 µM): 1.07
relative viability (CUDC-101 + Bortezomib; first compound 0.1 µM): 1.05
relative viability (CUDC-101 + Bortezomib; first compound 0.3162 µM): 1.06
relative viability (CUDC-101 + Bortezomib; first compound 1 µM): 0.815
relative viability ([1]; first compound 0.005 µM): 0.943
relative viability ([1]; first compound 0.01581 µM): 0.946
relative viability ([1]; first compound 0.05 µM): 0.912
relative viability ([1]; first compound 0.1581 µM): 1.02
relative viability ([1]; first compound 0.5 µM): 0.915
relative viability ([2]; first compound 0.005 µM): 0.74
relative viability ([2]; first compound 0.01581 µM): 0.885
relative viability ([2]; first compound 0.05 µM): 0.938
relative viability ([2]; first compound 0.1581 µM): 0.932
relative viability ([2]; first compound 0.5 µM): 0.806

NCI-H1703
relative viability (CUDC-101 + Bortezomib; first compound 0.01 µM): 0.401
relative viability (CUDC-101 + Bortezomib; first compound 0.1 µM): 0.305
relative viability (CUDC-101 + Bortezomib; first compound 0.3162 µM): 0.194
relative viability (CUDC-101 + Bortezomib; first compound 1 µM): 0.13
relative viability ([1]; first compound 0.005 µM): 0.318
relative viability ([1]; first compound 0.01581 µM): 0.416
relative viability ([1]; first compound 0.05 µM): 0.307
relative viability ([1]; first compound 0.1581 µM): 0.33
relative viability ([1]; first compound 0.5 µM): 0.466
relative viability ([2]; first compound 0.005 µM): 0.242
relative viability ([2]; first compound 0.01581 µM): 0.223
relative viability ([2]; first compound 0.05 µM): 0.218
relative viability ([2]; first compound 0.1581 µM): 0.261
relative viability ([2]; first compound 0.5 µM): 0.252

SK-MES-1
relative viability (CUDC-101 + Vorinostat; first compound 0.01 µM): 1.04
relative viability (CUDC-101 + Vorinostat; first compound 0.03162 µM): 1.04
relative viability (CUDC-101 + Vorinostat; first compound 0.1 µM): 1.1
relative viability (CUDC-101 + Vorinostat; first compound 0.3162 µM): 1.12
relative viability (CUDC-101 + Vorinostat; first compound 1 µM): 0.915
relative viability ([2]; first compound 0.005 µM): 0.365
relative viability ([2]; first compound 0.01581 µM): 0.454
relative viability ([2]; first compound 0.05 µM): 0.277
relative viability ([2]; first compound 0.1581 µM): 0.352
relative viability ([2]; first compound 0.5 µM): 0.374

NCI-H1648
relative viability (CUDC-101 + Vorinostat; first compound 0.01 µM): 0.631
relative viability (CUDC-101 + Vorinostat; first compound 0.03162 µM): 0.378
relative viability (CUDC-101 + Vorinostat; first compound 0.1 µM): 0.333
relative viability (CUDC-101 + Vorinostat; first compound 0.3162 µM): 0.225
relative viability (CUDC-101 + Vorinostat; first compound 1 µM): 0.22
